Assay [1] addresses 5-hydroxytryptamine receptor 2A (Homo sapiens, UniProt P28223). In words: Displacement of [3H]ketanserin from 5HT2A receptor. (In general: In a radioligand displacement assay an active substance lowers the binding of a labelled ligand.)
For assay [2], the target named is Sodium-dependent serotonin transporter (Homo sapiens, UniProt P31645). Description: Inhibition of serotonin reuptake at SERT.
Assay [3] has as its target Voltage-gated inwardly rectifying potassium channel KCNH2 (Homo sapiens, UniProt Q12809). Description: Displacement of [3H]dofetilide from human ERG channel.

Molecules are shown by their SMILES.

Sequence of 5-hydroxytryptamine receptor 2A (P28223 whole entry): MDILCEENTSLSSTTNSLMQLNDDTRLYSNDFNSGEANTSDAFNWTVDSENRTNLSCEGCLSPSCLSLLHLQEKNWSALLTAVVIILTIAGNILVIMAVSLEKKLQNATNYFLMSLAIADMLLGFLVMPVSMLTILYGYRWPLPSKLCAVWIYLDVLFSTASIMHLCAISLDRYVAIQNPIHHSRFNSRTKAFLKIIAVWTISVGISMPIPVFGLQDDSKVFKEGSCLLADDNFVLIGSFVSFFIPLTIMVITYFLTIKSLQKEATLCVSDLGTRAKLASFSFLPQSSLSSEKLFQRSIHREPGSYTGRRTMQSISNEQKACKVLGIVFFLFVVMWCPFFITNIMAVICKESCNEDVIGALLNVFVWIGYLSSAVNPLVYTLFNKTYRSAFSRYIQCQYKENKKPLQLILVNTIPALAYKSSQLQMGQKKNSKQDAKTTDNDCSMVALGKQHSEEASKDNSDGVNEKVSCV
Sequence of Sodium-dependent serotonin transporter (P31645 whole entry): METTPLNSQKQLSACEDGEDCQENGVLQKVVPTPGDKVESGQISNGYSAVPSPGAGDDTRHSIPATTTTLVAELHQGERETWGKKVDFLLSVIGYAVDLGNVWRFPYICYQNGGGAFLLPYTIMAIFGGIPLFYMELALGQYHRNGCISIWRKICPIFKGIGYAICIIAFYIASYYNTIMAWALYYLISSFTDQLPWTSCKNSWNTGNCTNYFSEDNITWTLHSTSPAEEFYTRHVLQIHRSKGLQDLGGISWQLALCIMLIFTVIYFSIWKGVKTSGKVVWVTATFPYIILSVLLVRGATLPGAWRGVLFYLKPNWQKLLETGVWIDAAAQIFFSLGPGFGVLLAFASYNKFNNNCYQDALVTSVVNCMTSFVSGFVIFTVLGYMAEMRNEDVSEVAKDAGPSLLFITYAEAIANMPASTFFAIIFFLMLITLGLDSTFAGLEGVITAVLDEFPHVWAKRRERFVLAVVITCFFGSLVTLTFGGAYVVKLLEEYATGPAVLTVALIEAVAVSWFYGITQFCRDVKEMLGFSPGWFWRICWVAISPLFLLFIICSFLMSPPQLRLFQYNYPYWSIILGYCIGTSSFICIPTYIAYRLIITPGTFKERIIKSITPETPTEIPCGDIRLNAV
Sequence of Voltage-gated inwardly rectifying potassium channel KCNH2 (Q12809 whole entry): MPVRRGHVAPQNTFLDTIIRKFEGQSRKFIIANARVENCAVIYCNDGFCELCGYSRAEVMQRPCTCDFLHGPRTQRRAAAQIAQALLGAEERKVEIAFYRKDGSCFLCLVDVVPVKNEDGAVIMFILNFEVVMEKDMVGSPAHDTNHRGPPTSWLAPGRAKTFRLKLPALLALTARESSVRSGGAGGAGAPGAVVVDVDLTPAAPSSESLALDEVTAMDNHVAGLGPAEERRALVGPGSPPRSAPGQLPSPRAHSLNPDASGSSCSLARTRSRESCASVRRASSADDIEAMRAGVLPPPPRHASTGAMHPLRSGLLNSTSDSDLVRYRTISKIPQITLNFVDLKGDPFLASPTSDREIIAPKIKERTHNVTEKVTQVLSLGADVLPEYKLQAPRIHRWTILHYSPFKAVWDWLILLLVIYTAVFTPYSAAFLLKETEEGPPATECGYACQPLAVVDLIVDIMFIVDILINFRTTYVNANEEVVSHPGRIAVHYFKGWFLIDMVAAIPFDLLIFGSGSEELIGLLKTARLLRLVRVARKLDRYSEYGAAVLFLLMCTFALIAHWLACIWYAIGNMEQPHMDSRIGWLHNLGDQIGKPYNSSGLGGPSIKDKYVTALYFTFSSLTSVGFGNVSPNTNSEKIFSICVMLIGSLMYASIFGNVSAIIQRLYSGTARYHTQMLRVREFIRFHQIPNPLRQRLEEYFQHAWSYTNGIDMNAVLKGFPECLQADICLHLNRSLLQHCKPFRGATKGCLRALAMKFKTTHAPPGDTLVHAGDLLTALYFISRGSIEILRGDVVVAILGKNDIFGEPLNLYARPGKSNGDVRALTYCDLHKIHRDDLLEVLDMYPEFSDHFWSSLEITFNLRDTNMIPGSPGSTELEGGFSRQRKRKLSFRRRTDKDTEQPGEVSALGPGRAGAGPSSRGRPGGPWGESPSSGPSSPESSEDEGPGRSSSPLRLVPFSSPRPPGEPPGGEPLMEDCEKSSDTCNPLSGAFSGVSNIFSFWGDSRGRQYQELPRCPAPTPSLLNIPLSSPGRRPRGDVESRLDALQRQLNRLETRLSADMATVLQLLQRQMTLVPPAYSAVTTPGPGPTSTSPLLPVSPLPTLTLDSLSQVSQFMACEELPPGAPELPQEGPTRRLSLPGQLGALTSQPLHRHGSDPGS

As usually defined, the IC50 is the concentration at which inhibition is half-maximal. Consider `CNC(C)c1ccc(Cl)cc1Oc1ccc(C)c(C)c1` (configuration not stated), for which the values for the 50% inhibitory concentration (IC50) in assay [1] and in assay [2] were 6.82 nM and 115 nM, respectively.

On to `CNCc1ccc(Cl)cc1Oc1ccc(F)c(Cl)c1`, for which the IC50 worked out at 60.9 nM in assay [1] and 25.4 nM in assay [2].

With `CNCc1cc(Cl)ccc1Oc1ccc(C)c(C)c1`, the IC50 in assay [1] turned out to be 51 nM; in assay [2], 9.81 nM.

On to `CN(C)Cc1ccc(C(F)(F)F)cc1Oc1ccc(Cl)c(Cl)c1`, for which the IC50 in assay [1] came to 41.5 nM; in assay [2], 17.1 nM.

On to `CNCc1ccc(Cl)cc1Oc1ccc(F)c(C)c1`, for which the results for the IC50 in assay [1] and in assay [2] were 32.9 nM and 31.2 nM, respectively.

As to `CNCc1cc(F)ccc1Oc1ccc(F)c(Cl)c1`, the concentration for half-maximal inhibition (IC50) in assay [1] is 575 nM; in assay [2], 37.5 nM.

`CNCc1cc(C#N)ccc1Oc1ccc(Cl)c(Cl)c1`: the IC50 in assay [3] worked out at 4560 nM; in assay [1], 3180 nM; in assay [2] it was 2.5 nM.

`CNCc1cc(Cl)ccc1Oc1ccc(Cl)c(Cl)c1`: the IC50 came out at 429 nM in assay [1] and 5.73 nM in assay [2].

On to `CNC(C)c1cc(C(F)(F)F)ccc1Oc1ccc(Cl)c(Cl)c1` (configuration not stated), for which the IC50 in assay [3] was 3030 nM; in assay [1], 291 nM; in assay [2], 61.2 nM.

On to `CNCc1ccc(Cl)cc1Oc1ccc(C)cc1`, for which the half-maximal inhibitory concentration (IC50) in assay [1] stood at 1.18 nM; in assay [2], 17 nM.

In the case of `CNCc1ccc(Cl)cc1Oc1ccc(Cl)c(C)c1`, the figures for the IC50 in assay [1] and in assay [2] were 9.04 nM and 4.27 nM, respectively.

Regarding `CN(C)Cc1ccccc1Oc1ccc(F)c(F)c1`, the IC50 in assay [1] came out at 1000 nM; in assay [2], 34.4 nM.

`CNC(C)c1cc(F)ccc1Oc1ccc(Cl)cc1` (configuration not stated): the values for the IC50 in assay [1] and in assay [2] were 206 nM and 34.8 nM, respectively.

As to `CNCc1cc(C)c(C)cc1Oc1ccc(Cl)c(Cl)c1`, the IC50 came to 1480 nM in assay [3], 79.4 nM in assay [1] and 8.9 nM in assay [2].

For the compound `CN(C)Cc1cc(N)ccc1Oc1ccc(Cl)c(Cl)c1`, the results for the IC50 in assay [1] and in assay [2] were 724 nM and 4.99 nM, respectively.

Consider `CNCc1ccccc1Oc1ccc(Cl)c(Cl)c1`, for which the IC50 in assay [1] is 721 nM; in assay [2] it was 4.02 nM.

For `CNCc1cc(C(F)(F)F)ccc1Oc1ccc(C)cc1`, the IC50 in assay [3] was found to be 10400 nM; in assay [1] it was 34.7 nM; in assay [2], 74.7 nM.

On to `CNC(C)c1ccccc1Oc1ccc(Cl)cc1` (configuration not stated), for which the IC50 in assay [1] was 179 nM; in assay [2], 56.8 nM.

Consider `CNCc1ccc(OC)cc1Oc1ccc(Cl)c(Cl)c1`, for which the IC50 worked out at 105 nM in assay [1] and 8.72 nM in assay [2].

As to `CNCc1ccc(F)cc1Oc1ccc(Cl)c(Cl)c1`, the results for the IC50 in assay [1] and in assay [2] were 651 nM and 36 nM, respectively.

In the case of `CNCc1ccc(Cl)cc1Oc1ccc(Cl)c(F)c1`, the IC50 is 1230 nM in assay [3], 58.1 nM in assay [1] and 88 nM in assay [2].

For `CNCc1ccccc1Oc1ccc(C)c(C)c1`, the half-maximal inhibitory concentration (IC50) in assay [1] was determined as 66.4 nM; in assay [2], 12.8 nM.

As for `Cc1ccc(Oc2ccccc2CN(C)C)cc1`, the IC50 was determined as 74.2 nM in assay [1] and 3.46 nM in assay [2].

Regarding `COc1ccc(CN(C)C)c(Oc2ccc(Cl)c(Cl)c2)c1`, the IC50 was 36.8 nM in assay [1] and 3.61 nM in assay [2].

Consider `CCc1cc(Oc2cc(Cl)ccc2CNC)ccc1Cl`, for which the IC50 in assay [3] was determined as 1150 nM; in assay [1], 47.1 nM; in assay [2] it was 20.7 nM.

As for `CNCc1cc(F)c(OC)cc1Oc1ccc(Cl)c(Cl)c1`, the values for the IC50 in assay [1] and in assay [2] were 74.6 nM and 4.51 nM, respectively.

For the compound `CNCc1ccc(C#N)cc1Oc1ccc(Cl)c(Cl)c1`, the IC50 in assay [3] turned out to be 1310 nM; in assay [1], 315 nM.

On to `CNC(C)c1cc(F)ccc1Oc1ccc(Cl)c(Cl)c1` (configuration not stated), for which the IC50 in assay [1] is 301 nM; in assay [2], 8.09 nM.

Consider `CNCc1ccc(Cl)cc1Oc1ccc(C)c(Cl)c1`, for which the values for the IC50 in assay [1] and in assay [2] were 9.11 nM and 4.19 nM, respectively.

As for `CC(c1ccccc1Oc1ccc(Cl)c(Cl)c1)N(C)C` (configuration not stated), the IC50 was 87.8 nM in assay [1] and 3.27 nM in assay [2].

Turning to `CNCc1cc(Cl)ccc1Oc1ccc(Cl)cc1`, the IC50 stood at 90.2 nM in assay [1] and 7.49 nM in assay [2].

Regarding `CNCc1cc(Br)ccc1Oc1ccc(Cl)c(Cl)c1`, the IC50 came out at 787 nM in assay [1] and 4.8 nM in assay [2].

`CNC(C)c1ccc(Cl)cc1Oc1ccc(C)cc1` (configuration not stated): the 50% inhibitory concentration (IC50) came out at 3690 nM in assay [3], 3.54 nM in assay [1] and 187 nM in assay [2].

In the case of `CNCc1cc(OC)c(OC)cc1Oc1ccc(Cl)c(Cl)c1`, the IC50 in assay [1] amounted to 249 nM; in assay [2], 14.1 nM.

Regarding `Cc1ccc(Oc2ccc(Cl)c(Cl)c2)c(CN(C)C)c1`, the results for the IC50 in assay [3], in assay [1] and in assay [2] were 3390 nM, 376 nM and 2.36 nM, respectively.

Turning to `CNCc1ccccc1Oc1ccc(Cl)cc1`, the IC50 came to 1050 nM in assay [1] and 13.9 nM in assay [2].

As for `CNCc1ccc(Cl)cc1Oc1ccc(Cl)cc1`, the half-inhibitory concentration (IC50) in assay [1] was 6.59 nM; in assay [2] it was 9.2 nM.

As for `CCc1cc(Oc2ccc(F)cc2CNC)ccc1Cl`, the IC50 was found to be 274 nM in assay [1] and 5.53 nM in assay [2].

As for `CN(C)Cc1cc(CC(N)=O)ccc1Oc1ccc(Cl)c(Cl)c1`, the results for the IC50 in assay [1] and in assay [2] were 2240 nM and 2.43 nM, respectively.

For the compound `CNCc1ccc(C(F)(F)F)cc1Oc1ccc(Cl)c(Cl)c1`, the IC50 in assay [1] turned out to be 362 nM; in assay [2] it was 29.6 nM.

As to `CNCc1ccc(Br)cc1Oc1ccc(Cl)c(Cl)c1`, the IC50 in assay [1] worked out at 66.8 nM; in assay [2] it was 5.1 nM.

As for `CNCc1ccc(C(F)(F)F)cc1Oc1ccc(Cl)cc1`, the values for the IC50 in assay [3], in assay [1] and in assay [2] were 5110 nM, 324 nM and 31.1 nM, respectively.

Regarding `CNCc1ccc(Cl)cc1Oc1ccc(C)c(C)c1`, the concentration for half-maximal inhibition (IC50) came out at 3.42 nM in assay [1] and 4.67 nM in assay [2].

`CNC(C)c1cc(C)ccc1Oc1ccc(Cl)c(Cl)c1` (configuration not stated): the IC50 in assay [1] came out at 172 nM; in assay [2], 39.6 nM.

Consider `CNCc1cc(C(F)(F)F)ccc1Oc1ccc(Cl)c(Cl)c1`, for which the results for the IC50 in assay [1] and in assay [2] were 1800 nM and 21.8 nM, respectively.

`CN(C)Cc1ccccc1Oc1ccc(Cl)c(Cl)c1`: the IC50 came out at 144 nM in assay [1] and 0.35 nM in assay [2].

Consider `CNCc1cc(C(N)=O)ccc1Oc1ccc(Cl)c(Cl)c1`, for which the IC50 in assay [3] is 5440 nM; in assay [1], 1550 nM; in assay [2], 3.78 nM.

As to `CNCc1cc(OC)ccc1Oc1ccc(Cl)c(Cl)c1`, the IC50 in assay [1] worked out at 1450 nM; in assay [2] it was 3.77 nM.

On to `CNCc1cc(F)ccc1Oc1ccc(Cl)c(Cl)c1`, for which the IC50 is 206 nM in assay [1] and 3.28 nM in assay [2].

On to `CNCc1ccc(Cl)cc1Oc1cccc(Cl)c1`, for which the IC50 in assay [3] is 2110 nM; in assay [1] it was 48.6 nM; in assay [2], 77.5 nM.

For `CN(C)Cc1ccccc1Oc1ccc(Cl)cc1`, the IC50 turned out to be 1980 nM in assay [1] and 1.68 nM in assay [2].

Take `CNC(C)c1ccc(OC)cc1Oc1ccc(Cl)c(Cl)c1` (configuration not stated): the IC50 in assay [1] is 88 nM; in assay [2] it was 41.2 nM.

`CNCc1cc(F)ccc1Oc1ccc(C)c(C)c1`: the IC50 came out at 52.4 nM in assay [1] and 7.55 nM in assay [2].

For the compound `CNCc1cc(F)ccc1Oc1ccc(Cl)cc1`, the IC50 in assay [1] turned out to be 495 nM; in assay [2] it was 9.47 nM.

For `CNCc1ccc(Cl)cc1Oc1ccc(Cl)c(Cl)c1`, the IC50 in assay [1] was determined as 89.5 nM; in assay [2], 6.22 nM.

Turning to `CNC(C)c1ccccc1Oc1ccc(C)cc1` (configuration not stated), the IC50 was 55.1 nM in assay [1] and 94.1 nM in assay [2].

In the case of `CSc1ccc(Oc2ccccc2CN(C)C)cc1`, the IC50 in assay [3] was 3020 nM; in assay [1] it was 458 nM; in assay [2], 1 nM.

Turning to `CNCc1ccc(Cl)cc1Oc1ccc(F)c(C(F)(F)F)c1`, the IC50 in assay [3] came out at 873 nM; in assay [1], 48.9 nM; in assay [2], 9.71 nM.

Turning to `CNCc1cc(F)ccc1Oc1ccccc1`, the IC50 in assay [1] is 670 nM; in assay [2] it was 381 nM.

As for `CNCc1cc(F)ccc1Oc1ccc(Cl)c(F)c1`, the results for the IC50 in assay [1] and in assay [2] were 2010 nM and 19.3 nM, respectively.

`CNC(C)c1ccccc1Oc1ccc(Cl)c(Cl)c1` (configuration not stated): the IC50 was 379 nM in assay [1] and 23 nM in assay [2].

In the case of `CNCc1cc(F)c(Cl)cc1Oc1ccc(Cl)c(Cl)c1`, the figures for the IC50 in assay [1] and in assay [2] were 230 nM and 4.37 nM, respectively.

`CNCc1cc(S(=O)(=O)NC)ccc1Oc1ccc(Cl)c(Cl)c1`: the results for the IC50 in assay [3], in assay [1] and in assay [2] were 4800 nM, 5570 nM and 9.35 nM, respectively.

Consider `CNCc1cc(F)ccc1Oc1ccc(-c2ccccc2)cc1`, for which the IC50 in assay [1] was 378 nM; in assay [2], 28.9 nM.

The values above are taken from ChEMBL document CHEMBL1152152, “Quantitative structure-activity relationship of phenoxyphenyl-methanamine compounds with 5HT2A, SERT, and hERG activities” (Bioorg Med Chem Lett, 2008).
